Results as given in paper PMC12444472, “BCI inhibits MKP3 by targeting the kinase-binding domain and disrupting ERK2 interaction” (The Journal of Biological Chemistry, 2025).
Several values for one entry are separate records, joined by “and”; a condition that tells them apart may be missing. Identical values can stand only once.

Experiments:
Test in all cases: MST affinity measurement
Settings in all cases: one-site binding model, mean ± SD of three experiments
MKP2^KBD = molecular target: T1, MKP2^KBD (Homo sapiens, UniProt Q13115)
T1 construct: MKP2(5–159) (MKP2^KBD); made in house; host or cells: Escherichia coli BL21(DE3)
T1 sequence (Q13115 5-159): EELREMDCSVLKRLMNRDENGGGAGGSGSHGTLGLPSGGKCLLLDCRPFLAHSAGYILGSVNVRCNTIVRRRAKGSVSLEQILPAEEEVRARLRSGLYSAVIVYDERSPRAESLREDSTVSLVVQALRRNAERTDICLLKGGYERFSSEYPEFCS
Procedure: (§1) MST measurements were performed using fluorescently labeled proteins and the inhibitor BCI (CAS: 1245792-51-1; TargetMol) on a Monolith instrument (NanoTemper Technologies). The RED–Tris–NTA second-generation dye was dissolved in MST buffer (20 mM Hepes, pH 7.4, 200 mM NaCl, and 0.05% Tween-20) to prepare a 5 μM stock solution. Fluorescent labeling of MKP proteins followed the standard protocol of the MO-L018 RED–Tris–NTA protein labeling kit, leveraging the His-tag–dye interaction.
(§2) The BCI compound was prepared as a 600 to 750 μM stock solution in MST buffer with 10% DMSO to enhance solubility, followed by a 16-point serial dilution. The diluted BCI solutions were thoroughly mixed with labeled MKP proteins (50 nM) at a 1:1 volume ratio, yielding a final volume of 10 μl. The reaction mixtures were incubated in the dark for 10 min at room temperature before being loaded into standard glass capillaries. Measurements were carried out on the Monolith instrument (100% LED, 40% IR laser power) with a 20 s laser on time. The normalized fluorescence values from triplicate measurements were averaged at each concentration and fitted to a 1:1 binding model using the KD model in MO.Affinity software (v3.0.5, NanoTemper Technologies) to determine the binding affinities between MKP proteins and the BCI inhibitor. The final reported Kd value represents the mean ± SD of Kd values obtained from three independent experiments, each fitted separately.

MKP3^KBD = molecular target: T2, MKP3^KBD (Homo sapiens, UniProt Q16828)
T2 construct: MKP3(1–154) (MKP3^KBD); made in house; host or cells: Escherichia coli BL21(DE3)
T2 sequence (Q16828 1-154): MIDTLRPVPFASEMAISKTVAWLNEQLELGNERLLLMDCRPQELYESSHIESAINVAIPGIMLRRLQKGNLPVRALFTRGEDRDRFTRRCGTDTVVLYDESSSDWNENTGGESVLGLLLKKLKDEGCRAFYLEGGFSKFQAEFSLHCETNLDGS
Procedure: as §1, §2

MKP3^FL = molecular target: T3, MKP3^FL (Homo sapiens, UniProt Q16828)
T3 construct: MKP3(1–381) (MKP3^FL); made in house; host or cells: Escherichia coli BL21(DE3)
T3 sequence (Q16828 1-381): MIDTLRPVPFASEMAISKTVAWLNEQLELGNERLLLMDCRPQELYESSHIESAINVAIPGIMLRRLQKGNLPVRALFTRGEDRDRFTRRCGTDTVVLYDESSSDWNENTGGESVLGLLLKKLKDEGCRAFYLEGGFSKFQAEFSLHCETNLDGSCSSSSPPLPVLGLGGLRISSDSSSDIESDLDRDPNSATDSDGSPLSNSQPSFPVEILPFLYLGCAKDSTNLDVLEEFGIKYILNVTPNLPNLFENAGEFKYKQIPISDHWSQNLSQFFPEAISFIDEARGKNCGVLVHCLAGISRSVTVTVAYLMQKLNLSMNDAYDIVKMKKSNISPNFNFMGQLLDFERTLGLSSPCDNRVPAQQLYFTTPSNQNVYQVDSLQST
Procedure: as §1, §2

MKP5^KBD = molecular target: T4, MKP5^KBD (Homo sapiens, UniProt Q9Y6W6)
T4 construct: MKP5(139–287) (MKP5^KBD); made in house; host or cells: Escherichia coli BL21(DE3)
T4 sequence (Q9Y6W6 139-287): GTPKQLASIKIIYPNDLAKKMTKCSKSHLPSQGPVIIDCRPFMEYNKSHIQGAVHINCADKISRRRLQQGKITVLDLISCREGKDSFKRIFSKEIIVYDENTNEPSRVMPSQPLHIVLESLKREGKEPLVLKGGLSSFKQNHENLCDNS
Procedure: as §1, §2

MKPX^KBD = molecular target: T5, MKPX^KBD (Homo sapiens, UniProt Q16829)
T5 construct: MKPX(1–140) (MKPX^KBD); made in house; host or cells: Escherichia coli BL21(DE3)
T5 sequence (Q16829 1-140 isoform Q16829-2): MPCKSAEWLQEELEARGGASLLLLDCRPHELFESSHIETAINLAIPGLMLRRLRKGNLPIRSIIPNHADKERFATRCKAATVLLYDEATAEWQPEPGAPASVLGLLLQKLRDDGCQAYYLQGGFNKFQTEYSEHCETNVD
Procedure: as §1, §2

MKP1^KBD = molecular target: T6, MKP1^KBD (Homo sapiens, UniProt P28562)
T6 construct: MKP1(1–141) (MKP1^KBD); made in house; host or cells: Escherichia coli BL21(DE3)
T6 sequence (P28562 1-141): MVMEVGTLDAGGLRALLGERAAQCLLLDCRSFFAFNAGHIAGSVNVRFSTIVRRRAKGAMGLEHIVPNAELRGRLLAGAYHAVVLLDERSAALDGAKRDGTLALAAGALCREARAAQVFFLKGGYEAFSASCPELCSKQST
Procedure: as §1, §2

- Kd (MKP2^KBD): ~49 µM and 49 µM
- Kd (MKP3^KBD): 15 µM and ~15 µM
- Kd (MKP3^FL): 9.2 ± 1.8 µM
- Kd (MKP5^KBD): ~8.5 µM and 8.5 µM
- Kd (MKPX^KBD): ~14.1 µM and 14.1 µM
- Kd (MKP1^KBD): ~73.1 µM and 73.1 µM
SMILES: O=C1/C(=C/c2ccccc2)C(NC2CCCCC2)c2ccccc21 (stereo not drawn) [BCI, (E)-2-benzylidene-3-(cyclohexylamino)-2,3-dihydro-1H-inden-1-one]
